Laboratory results taken from paper PMC7970697, “Inhibition and Induction by Poziotinib of Different Rat Cytochrome P450 Enzymes In Vivo and in an In Vitro Cocktail Method” (Frontiers in Pharmacology, 2021).
Like-named read-outs stand apart in the source and are kept apart here.

Tests used:
cyp2e1 = experiment: Effect of poziotinib on cyp2e1 activity in rats (chlorzoxazone pharmacokinetics); format: in vivo, Sprague-Dawley rats; details: poziotinib 5 mg/kg oral 7 days, chlorzoxazone probe
Method: (§2) Twelve male Sprague-Dawley rats (230 ± 20 g) were randomly divided into treated and control groups, with 6 in each group. […] The supernatant was mixed with 200 μL of acetonitrile and 20 μL of 0.5 μg/ml diazepam (IS), vortexed for 30 s, centrifuged at 13,000 rpm for 5 min, and the supernatant was injected into the UPLC-MS/MS system for analysis.
(§3) Pharmacokinetic parameters were calculated using DAS software (Version 3.2.8). SPSS software (version 16.0; SPSS Inc., Chicago, IL, United States) was used to analyze the significance of differences between the main pharmacokinetic parameters. p < 0.05 was considered statistically significant. GraphPad (version 8.0; GraphPad Software Inc., San Diego, CA, United States) was used to calculate IC50 and plot the plasma concentration-time curves and inhibition plots (type of inhibition, time- and concentration-dependence).

cyp1a2 [1] = experiment: Effect of poziotinib on cyp1a2 activity in rats (phenacetin pharmacokinetics); format: in vivo, Sprague-Dawley rats; details: poziotinib 5 mg/kg oral 7 days, phenacetin probe
Method: as §2, §3

cyp2b1 [2] = biological target: T1, cyp2b1 (Rattus norvegicus, UniProt P00176); experiment: Time- and concentration-dependent inhibition in RLMs, bupropion; format: in vitro ADME; parameters: from tissue; host or cells: rat liver microsomes, prepared in-house
T1 sequence (P00176 1-491): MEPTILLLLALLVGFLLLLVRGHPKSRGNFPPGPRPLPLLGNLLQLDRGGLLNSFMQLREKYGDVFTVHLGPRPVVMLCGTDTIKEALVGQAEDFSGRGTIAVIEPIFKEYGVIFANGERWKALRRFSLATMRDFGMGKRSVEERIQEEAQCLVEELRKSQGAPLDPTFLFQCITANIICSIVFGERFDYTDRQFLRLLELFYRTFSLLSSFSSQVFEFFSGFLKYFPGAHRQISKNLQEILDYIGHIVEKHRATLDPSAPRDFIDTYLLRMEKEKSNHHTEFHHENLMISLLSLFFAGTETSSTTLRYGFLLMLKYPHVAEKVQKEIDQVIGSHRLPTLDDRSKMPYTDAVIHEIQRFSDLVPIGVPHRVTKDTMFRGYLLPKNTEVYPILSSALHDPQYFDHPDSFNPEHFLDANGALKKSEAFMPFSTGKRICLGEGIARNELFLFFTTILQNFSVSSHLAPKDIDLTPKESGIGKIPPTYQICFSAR
Method: A mixture containing 1 mg/ml of RLMs, different concentrations of poziotinib (0, 2, 4, 8 and16 μM for 2b1; 0, 5, 10 20 and 40 μM for 2c11), and NADPH was pre-incubated at 37°C for 0, 5, 10, and 20 min; Methanol instead of poziotinib was performed as control. Then 20 μM bupropion or 100 μM tolbutamide was added and incubated at 37°C for 30 min. The reactions were carried out and analyzed in triplicate as described in 2.3.

cyp2b1 [3] = biological target: T1, cyp2b1; experiment: Cocktail method IC50 in rat liver microsomes, bupropion probe; format: in vitro ADME; parameters: from tissue; host or cells: rat liver microsomes, prepared in-house
Method: (§1) The cocktail method was employed to analyze the effects of poziotinib on cyp1a2, cyp2b1, cyp2c11, cyp2d1, cyp2e1, and cyp3a1/2. […] Then half-maximal inhibitory concentration (IC50) of poziotinib was determined with all of the CYPs. […]. To this cocktail, 1 mg/ml of RLMs, 100 mM potassium phosphate buffer (pH 7.4), poziotinib (1, 2.5, 5, 10, 25, 50, or 100 μM) were added to obtain a final volume of 200 μL. After pre-incubation of this mixture for 5 min in a shaking water bath at 37°C, 1 mM NADPH was added to start the reaction. The reactions were allowed to proceed for 30 min, after which 200 μL of acetonitrile and 20 μL of IS were added to terminate the reactions. The mixtures were vortexed for 30 s and centrifuged again at 13,000 rpm for 5 min.

cyp3a1/2 = experiment: Cocktail method IC50 in rat liver microsomes, midazolam probe; format: in vitro ADME
Method: as §1

cyp1a2 [4] = biological target: T2, cyp1a2 (Rattus norvegicus, UniProt P04799); experiment: Cocktail method IC50 in rat liver microsomes, phenacetin probe; format: in vitro ADME
T2 construct: To this cocktail, 1 mg/ml of RLMs; from tissue; host or cells: rat liver microsomes, prepared in-house
T2 sequence (P04799 1-513): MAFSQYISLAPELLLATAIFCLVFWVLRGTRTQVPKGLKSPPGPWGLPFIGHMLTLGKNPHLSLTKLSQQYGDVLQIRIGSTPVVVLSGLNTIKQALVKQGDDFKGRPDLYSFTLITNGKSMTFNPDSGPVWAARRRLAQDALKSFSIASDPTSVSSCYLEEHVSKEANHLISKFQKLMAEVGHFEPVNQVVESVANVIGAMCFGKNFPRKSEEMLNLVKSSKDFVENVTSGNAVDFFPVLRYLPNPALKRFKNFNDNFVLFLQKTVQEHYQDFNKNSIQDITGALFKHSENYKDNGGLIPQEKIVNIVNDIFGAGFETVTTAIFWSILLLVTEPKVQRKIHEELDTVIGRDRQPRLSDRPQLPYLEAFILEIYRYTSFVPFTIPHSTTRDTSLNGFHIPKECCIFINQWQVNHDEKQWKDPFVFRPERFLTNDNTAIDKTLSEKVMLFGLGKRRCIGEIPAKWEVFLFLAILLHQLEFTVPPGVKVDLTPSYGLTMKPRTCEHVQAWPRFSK
Method: as §1

C=CC(=O)N1CCC(Oc2cc3c(Nc4ccc(Cl)c(Cl)c4F)ncnc3cc2OC)CC1 [Poziotinib]
effect on cyp2e1 activity in rats (cyp2e1): induced cyp2e1 activity | effect on cyp1a2 activity in rats (cyp1a2 [1]): induces cyp1a2 activity | time- and concentration-dependent inhibition of cyp2b1 (cyp2b1 [2]; pre-incubation 0, 5, 10, 20 min, poziotinib 2-16 μM): no time- or concentration-dependent inhibitory effects | reversibility of inhibition of cyp2b1 (cyp2b1 [2]; pre-incubation 0, 5, 10, 20 min with NADPH): reversible | IC50 (cyp2b1 [3]; 20 μM bupropion, cocktail, 30 min, read-out: IC50): 8.79 µM | IC50 (cyp2b1 [3]; classes after Jin et al., 2015, read-out: inhibition class by IC50, CYP2B1): 1 to 10 µM | inhibitory effect on cyp3a1/2 (in words) (cyp3a1/2): did not show any obvious inhibitory effect | inhibitory effect on cyp3a1/2 (in words) (cyp3a1/2; listed as poziotinib): not obvious | IC50 at 30 min (cyp3a1/2; pH 7.4, probe midazolam (5 μM), 5 μM midazolam, cocktail, 30 min): 303 µM | inhibitory effect on cyp1a2 (in words) (cyp1a2 [4]): did not show any obvious inhibitory effect | IC50 (cyp1a2 [4]; 40 μM phenacetin, cocktail, 30 min): 128 µM | inhibitory effect on cyp1a2 (in words) (cyp1a2 [4]; listed as poziotinib): not obvious
